Marks after values point to notes of the source that are not given here.
Test system: Mouse Kupffer cell
Assay: Phagocytosis assay of Kupffer cell (FITC-beads ingestion)
Format: cell-based
Details: relative to control (2% FCS) = 1
Procedure: C57BL6/j mice were intraperitoneally (ip) injected with a mixture of Rompun® xylazine anesthesia and ketamin (S-(+)-ketamine) anesthesia mixed at a ratio of 1:3. The central vein of each mouse was cannulated with a polyethylene catheter, and the liver tissue was perfused with 10 ml Ca^2+-free HBSS buffer for 10 minutes at a perfusion rate of 1 ml/min, and HBSS buffer containing 0.05% collagenase type IV for 10 minutes at the perfusion rate of 1 mL/min to soften the liver tissue. The softened liver tissue was excised, rinsed and cut open by a pair of forceps to release cell suspension from the liver tissue. After the connective tissue was detached, the cell suspension was filtered with a #53 nylon mesh and centrifuged at 30 g for 3 minutes. The cell suspension was then centrifuged at 600 g for 5 minutes. The supernatant was discarded and the cell pellet was resuspended in 15 mL RBC lysis buffer and allowed a reaction to take place for 2 minutes. The cell suspension was added with 15 mL of RPMI 1640 medium and centrifuged, and the cell pellet was resuspended in 5 mL of RPMI 1640 medium and layered on top of a Percoll™ solution consisting of 25% (v/v) Percoll™ density gradient medium. The cell solution was centrifuged, and the cell pellet containing enriched Kupffer cells was collected. The enriched Kupffer cells were washed with RPMI 1640 medium and resuspended in serum-free RPMI 1640 medium.
Kupffer cells were seeded (4×10^5 cells/well) in a 96-well culture plate and cultured in RPMI medium supplemented with 10% FCS, also known as 10% FCS RPMI medium hereinafter, for at least 24 hours. The medium was changed to 2% FCS RPMI medium added with PH of different concentrations (1000 μg/mL, 100 μg/mL, 10 μg/mL and 1 μg/mL). […] FluoroQuench™ dye (0.5 μL/well) was added to quench the fluorescence from the […] 1 μm-sized FITC-beads. The fluorescence of the ingested 1 μm-sized FITC-beads was measured with a cytofluorometer after one hour and normalized with the fluorescence of the control group to determine the relative phagocytosis index as shown in Table 2.

tuftsin
Mouse Kupffer cell Ingestion phagocytosis Index (1 μg/ml): 1.49** | Mouse Kupffer cell Ingestion phagocytosis Index (10 μg/ml): 1.2* | Mouse Kupffer cell Ingestion phagocytosis Index (100 μg/ml): 1.01
